Results: the NIST ThermoML archive (doi:10.1021/je100220c)
± gives the expanded uncertainty stated by the source.

Assay: excess molar enthalpy (molar enthalpy of mixing); xn = mol fraction of the nth substance listed
Details: Liquid, Flow calorimetry

CC(C)=O [acetone] + O=C=O
excess molar enthalpy [kcal/mol]
Details | 313.15 K | 323.15 K | 333.15 K
9000 kPa, x2 = 0.095 | -0.109 ± 0.00359 | – | –
9000 kPa, x2 = 0.102 | – | -0.174 ± 0.00526 | -0.18 ± 0.00526
9000 kPa, x2 = 0.158 | – | -0.262 ± 0.00645 | –
9000 kPa, x2 = 0.18 | -0.223 ± 0.0055 | – | -0.313 ± 0.00765
9000 kPa, x2 = 0.246 | -0.287 ± 0.00645 | -0.406 ± 0.00932 | -0.424 ± 0.00956
9000 kPa, x2 = 0.319 | – | -0.512 ± 0.0112 | –
9000 kPa, x2 = 0.337 | -0.357 ± 0.00789 | – | -0.571 ± 0.0127
9000 kPa, x2 = 0.424 | – | -0.643 ± 0.0141 | -0.702 ± 0.0153
9000 kPa, x2 = 0.432 | -0.446 ± 0.0098 | – | –
9000 kPa, x2 = 0.507 | -0.484 ± 0.0105 | -0.749 ± 0.0163 | -0.8 ± 0.0172
9000 kPa, x2 = 0.586 | -0.532 ± 0.0115 | -0.834 ± 0.0179 | –
9000 kPa, x2 = 0.625 | – | – | -0.958 ± 0.0206
9000 kPa, x2 = 0.662 | -0.547 ± 0.0117 | – | –
9000 kPa, x2 = 0.699 | – | -0.957 ± 0.0208 | -1.02 ± 0.0217
9000 kPa, x2 = 0.771 | -0.565 ± 0.0122 | -0.998 ± 0.0215 | -1.04 ± 0.0222
9000 kPa, x2 = 0.805 | – | -0.998 ± 0.0215 | –
9000 kPa, x2 = 0.807 | – | – | -1 ± 0.0232
9000 kPa, x2 = 0.84 | -0.534 ± 0.0117 | -0.968 ± 0.0208 | –
9000 kPa, x2 = 0.9 | -0.487 ± 0.0108 | – | –
9000 kPa, x2 = 0.906 | – | -0.821 ± 0.0194 | -0.485 ± 0.0151
9000 kPa, x2 = 0.938 | -0.415 ± 0.0108 | -0.624 ± 0.022 | -0.289 ± 0.0139
9000 kPa, x2 = 0.969 | -0.287 ± 0.0103 | -0.271 ± 0.0234 | –
12000 kPa, x2 = 0.108 | -0.0772 ± 0.00215 | -0.0963 ± 0.00239 | –
12000 kPa, x2 = 0.189 | -0.137 ± 0.00335 | – | –
12000 kPa, x2 = 0.209 | – | -0.182 ± 0.0043 | –
12000 kPa, x2 = 0.258 | -0.175 ± 0.00406 | – | –
12000 kPa, x2 = 0.305 | – | -0.254 ± 0.00574 | –
12000 kPa, x2 = 0.332 | -0.22 ± 0.00502 | – | –
12000 kPa, x2 = 0.351 | – | -0.29 ± 0.00645 | –
12000 kPa, x2 = 0.395 | -0.251 ± 0.0055 | – | –
12000 kPa, x2 = 0.438 | – | -0.352 ± 0.00765 | –
12000 kPa, x2 = 0.464 | -0.279 ± 0.00598 | – | –
12000 kPa, x2 = 0.562 | -0.307 ± 0.012 | -0.403 ± 0.00884 | –
12000 kPa, x2 = 0.646 | – | -0.423 ± 0.00908 | –
12000 kPa, x2 = 0.675 | -0.316 ± 0.00693 | – | –
12000 kPa, x2 = 0.747 | – | -0.429 ± 0.00956 | –
12000 kPa, x2 = 0.781 | -0.287 ± 0.00621 | – | –
12000 kPa, x2 = 0.801 | – | -0.411 ± 0.00932 | –
12000 kPa, x2 = 0.847 | -0.245 ± 0.00574 | – | –
12000 kPa, x2 = 0.879 | – | -0.332 ± 0.00789 | –
12000 kPa, x2 = 0.911 | -0.176 ± 0.00502 | – | –
12000 kPa, x2 = 0.941 | – | -0.223 ± 0.00598 | –
12000 kPa, x2 = 0.971 | -0.0612 ± 0.00215 | -0.132 ± 0.0055 | –
15000 kPa, x2 = 0.111 | -0.0662 ± 0.00167 | -0.0736 ± 0.00191 | -0.0887 ± 0.00239
15000 kPa, x2 = 0.194 | -0.109 ± 0.00263 | -0.127 ± 0.00311 | –
15000 kPa, x2 = 0.215 | – | – | -0.162 ± 0.00382
15000 kPa, x2 = 0.264 | -0.148 ± 0.00335 | -0.171 ± 0.00382 | –
15000 kPa, x2 = 0.312 | – | – | -0.225 ± 0.00502
15000 kPa, x2 = 0.34 | -0.182 ± 0.00406 | – | –
15000 kPa, x2 = 0.359 | – | -0.216 ± 0.00478 | –
15000 kPa, x2 = 0.404 | – | – | -0.285 ± 0.00645
15000 kPa, x2 = 0.456 | -0.217 ± 0.00478 | – | –
15000 kPa, x2 = 0.473 | – | -0.267 ± 0.00574 | –
15000 kPa, x2 = 0.489 | – | – | -0.326 ± 0.00717
15000 kPa, x2 = 0.53 | -0.239 ± 0.00526 | -0.283 ± 0.00621 | –
15000 kPa, x2 = 0.586 | -0.244 ± 0.00526 | – | –
15000 kPa, x2 = 0.609 | – | -0.297 ± 0.00645 | -0.364 ± 0.00813
15000 kPa, x2 = 0.647 | -0.244 ± 0.00526 | – | –
15000 kPa, x2 = 0.683 | – | -0.296 ± 0.00645 | -0.372 ± 0.00837
15000 kPa, x2 = 0.719 | -0.234 ± 0.00502 | – | –
15000 kPa, x2 = 0.753 | – | – | -0.36 ± 0.00813
15000 kPa, x2 = 0.787 | -0.212 ± 0.00478 | -0.268 ± 0.00574 | –
15000 kPa, x2 = 0.82 | – | – | -0.31 ± 0.00717
15000 kPa, x2 = 0.852 | -0.173 ± 0.00406 | -0.223 ± 0.00502 | –
15000 kPa, x2 = 0.883 | – | – | -0.248 ± 0.00574
15000 kPa, x2 = 0.913 | -0.119 ± 0.00311 | -0.156 ± 0.00382 | –
15000 kPa, x2 = 0.915 | – | – | -0.202 ± 0.0055
15000 kPa, x2 = 0.943 | -0.087 ± 0.00311 | -0.117 ± 0.00406 | -0.156 ± 0.0055
15000 kPa, x2 = 0.972 | -0.0457 ± 0.00311 | -0.0633 ± 0.00335 | -0.0817 ± 0.0055
18000 kPa, x2 = 0.114 | -0.0631 ± 0.00167 | -0.0648 ± 0.00191 | –
18000 kPa, x2 = 0.198 | -0.0997 ± 0.00239 | – | –
18000 kPa, x2 = 0.219 | – | -0.124 ± 0.00287 | –
18000 kPa, x2 = 0.269 | -0.129 ± 0.00287 | – | –
18000 kPa, x2 = 0.318 | – | -0.174 ± 0.00382 | –
18000 kPa, x2 = 0.346 | -0.161 ± 0.00359 | – | –
18000 kPa, x2 = 0.41 | -0.187 ± 0.00406 | -0.211 ± 0.00454 | –
18000 kPa, x2 = 0.479 | -0.202 ± 0.0043 | -0.233 ± 0.00502 | –
18000 kPa, x2 = 0.577 | -0.215 ± 0.00454 | -0.248 ± 0.00526 | –
18000 kPa, x2 = 0.652 | -0.22 ± 0.00478 | -0.245 ± 0.00526 | –
18000 kPa, x2 = 0.724 | -0.205 ± 0.00454 | -0.231 ± 0.00502 | –
18000 kPa, x2 = 0.791 | -0.173 ± 0.00382 | -0.205 ± 0.00454 | –
18000 kPa, x2 = 0.855 | -0.136 ± 0.00335 | -0.167 ± 0.00382 | –
18000 kPa, x2 = 0.915 | -0.0915 ± 0.00263 | -0.108 ± 0.00311 | –
18000 kPa, x2 = 0.944 | – | -0.0774 ± 0.00287 | –
18000 kPa, x2 = 0.956 | -0.0521 ± 0.00215 | – | –
18000 kPa, x2 = 0.973 | – | -0.0445 ± 0.00239 | –
